{"source": "patent US20170044372A1", "about": "“CELL TRACKING REAGENTS AND THEIR METHODS OF USE” (LIFE TECHNOLOGIIES CORPORATION, priority 2014, published 2017)", "system": "HeLa cells", "assay": "CYQUANT Direct cytotoxicity / cell viability assay", "type": "cell-based", "conditions": "96 well plate, labeled at 10 μM for 30 mins at 37° C. in LCIS, assayed on days 1, 2 and 3, compared to DMSO alone", "protocol": "FIG. 2: Lack of cytotoxicity of Compound 10, as measured by the CYQUANT Direct (Thermo Fisher Scientific) method. Fluorescence on the Y-axis is proportional to cell population viability. HeLa cells plated in a 96 well plate were labeled with CELLTRACKER Red, Compound 10, or DMSO in Live Cell Imaging Solution (LCIS) at 10 μM concentration for 30 mins at 37° C. The LCIS was then aspirated from cells and complete media added for an overnight incubation. The following day (Day 1) cells were assayed for cytotoxicity using the CYQUANT Direct assay (Thermo Fisher Scientific).\nA549, HeLa and U-2 OS cells were plated in a 24-well plate at a concentration of 2000 cells/well. Compound 10 was added at a final concentration of 10 μM in Live Cell Imaging Solution (Life Technologies Corporation, Carlsbad, Calif.) and incubated for 30-60 min at 37° C. Cells were washed in dPBS and the cell media was added. Cells were scanned using the scan routine on an EVOS FL Auto microscope (Thermo Fisher Scientific) for 10% of the middle of the well. The same scan routine was used on Days 2, 3 and 4 of growth. Cell viability was assessed using CYQUANT Direct (Thermo Fisher Scientific) using the same scan routine as described above. The results in HeLa cells can be seen in FIGS. 1 and 2.", "data": [{"smiles": "CN(C)c1ccc2c(-c3ccc(C(=O)ON4C(=O)CCC4=O)cc3C(=O)O)c3ccc(=[N+](C)C)cc-3oc2c1", "note": "[Compound 10]", "values": [{"measurement": "cytotoxicity as measured by the CYQUANT Direct method (fluorescence proportional to cell population viability)", "result": "no cytotoxicity"}]}]}
